The source of these data is PubChem BioAssay (NCI).

Molecules are shown by their SMILES. Values joined by “and” are separate entries in the source; they are usually repeats but may differ in a detail not shown here. Identical values can stand only once.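 Protocol summary: plate cells (96-well), add compound at 5 concentrations, incubate 48 h, interpolate endpoints linearly. GI50 is the concentration that inhibits growth by half. TGI is the concentration that stops growth completely.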

Test systems include IGROV1 ovarian; SK-MEL-2 melanoma; DU-145 prostate; T-47D breast; HOP-62 NSCLC; NCI-H226 lung; HCT-15 colon; U251 CNS; HCT-116 colon; CCRF-CEM leukemia.
What all share (experiment): inhibition of tumour cell growth, NCI panel, 48 h

On to `O=C(O)c1ccc(NC(c2ccccc2)c2ccc3cccnc3c2O)cc1` (stereo not drawn), for which the TGI is above 95.8 µM in the experiment on IGROV1 ovarian; above 100 µM with SK-MEL-2 melanoma; above 100 µM with DU-145 prostate; 50.1 µM with T-47D breast; above 100 µM in the experiment on HOP-62 NSCLC; above 31 µM in the experiment with NCI-H226 lung. For the same compound, the TGI in the experiment with HCT-15 colon is above 100 µM; in the experiment on U251 CNS it was above 41.2 µM; with HCT-116 colon, above 100 µM; in the experiment with CCRF-CEM leukemia, 6.05 µM.
As for `COc1ccc(N2C(=O)C3c4[nH]c5ccc([N+](=O)[O-])cc5c4C4CCC(C(C)(C)C)CC4C3C2=O)cc1` (stereo not drawn), the TGI in the experiment on IGROV1 ovarian is above 100 µM; with SK-MEL-2 melanoma it was above 100 µM; in the experiment on DU-145 prostate it was above 100 µM; with T-47D breast, above 100 µM; with HOP-62 NSCLC, 78.8 µM; in the experiment on NCI-H226 lung it was 72.6 µM. The TGI is above 100 µM in the experiment on HCT-15 colon, 90.7 µM with U251 CNS, 23.9 µM in the experiment with HCT-116 colon and above 100 µM in the experiment on CCRF-CEM leukemia.
With `COc1ccc(Nc2c(C#N)c3n(c4ccccc24)c2ccccc2[n+]3C)cc1OC`, the TGI in the experiment on IGROV1 ovarian was 17.8 µM; in the experiment on SK-MEL-2 melanoma, 14.9 µM; in the experiment on DU-145 prostate, 18.5 µM; in the experiment with T-47D breast it was above 36.9 µM; with HOP-62 NSCLC, 23.6 µM; in the experiment on NCI-H226 lung it was 10.4 µM. Further, the TGI was 6.5 µM with HCT-15 colon, 17.9 µM in the experiment with U251 CNS, 7.56 µM in the experiment with HCT-116 colon and above 100 µM in the experiment with CCRF-CEM leukemia.
With `Cc1ccc(S(=O)(=O)N2CCN3C(=O)c4ccccc4C32c2ccc(F)cc2)cc1` (stereo not drawn), the TGI in the experiment on IGROV1 ovarian, with SK-MEL-2 melanoma, with DU-145 prostate, in the experiment on T-47D breast, with HOP-62 NSCLC and in the experiment on NCI-H226 lung was above 100 µM throughout. Also, the TGI in the experiment on HCT-15 colon is above 100 µM; in the experiment with U251 CNS, above 100 µM; with HCT-116 colon it was above 100 µM; in the experiment on CCRF-CEM leukemia it was 80 µM.
Take `COc1cc2oc(-c3ccc(O)cc3)c(OC3OC(C)C(O)C(O)C3O)c(=O)c2c(O)c1OC` (stereo not drawn): the TGI in the experiment with IGROV1 ovarian, in the experiment with SK-MEL-2 melanoma, in the experiment on DU-145 prostate, in the experiment with T-47D breast, in the experiment on HOP-62 NSCLC and in the experiment on NCI-H226 lung was above 100 µM each time. Also, the TGI in the experiment with HCT-15 colon, in the experiment on U251 CNS, in the experiment on HCT-116 colon and in the experiment on CCRF-CEM leukemia was above 100 µM each time.
Take `c1cc(-c2cnc(-c3ccc4c(c3)CCCO4)o2)ccn1`: the TGI turned out to be 36.5 µM in the experiment on IGROV1 ovarian; 24.8 µM with SK-MEL-2 melanoma; 24.8 µM with DU-145 prostate; 47.2 µM with T-47D breast; 30.1 µM in the experiment with HOP-62 NSCLC; 31.7 µM with NCI-H226 lung. Further, the TGI in the experiment on HCT-15 colon is 31.6 µM; in the experiment on U251 CNS, 78.5 µM; in the experiment on HCT-116 colon it was 31.6 µM; in the experiment with CCRF-CEM leukemia it was 29.7 µM.
`O=C1CC2C=CC(O)C(C1)C2` (stereo not drawn): the TGI in the experiment on IGROV1 ovarian, in the experiment with SK-MEL-2 melanoma, in the experiment with DU-145 prostate, in the experiment on T-47D breast, in the experiment on HOP-62 NSCLC and with NCI-H226 lung was above 100 µM in each case. Besides, the TGI in the experiment with HCT-15 colon, with U251 CNS, with HCT-116 colon and in the experiment on CCRF-CEM leukemia was above 100 µM in each case.
`O=c1[nH]c2nc3ccccc3c(=O)n2/c1=C/c1ccc(O)cc1`: the TGI with IGROV1 ovarian, in the experiment on SK-MEL-2 melanoma, in the experiment with DU-145 prostate, in the experiment with T-47D breast, in the experiment on HOP-62 NSCLC and with NCI-H226 lung was above 100 µM throughout. Also, the TGI is above 100 µM in the experiment on HCT-15 colon, 83.6 µM in the experiment with U251 CNS, above 100 µM in the experiment with HCT-116 colon and above 100 µM with CCRF-CEM leukemia.
`COC(=O)C1(Cc2ccccc2)Cc2cc3c(cc2C1=O)CCC3` (stereo not drawn): the TGI with IGROV1 ovarian is above 100 µM; in the experiment with SK-MEL-2 melanoma, 53.1 µM; in the experiment on DU-145 prostate, above 100 µM; with T-47D breast, 66.6 µM; with HOP-62 NSCLC it was above 100 µM; in the experiment on NCI-H226 lung it was 92.6 µM. In addition, the TGI in the experiment with HCT-15 colon is above 100 µM; with U251 CNS, above 100 µM; in the experiment with HCT-116 colon, above 100 µM; in the experiment on CCRF-CEM leukemia, 52.9 µM.
For `CCCCN(CC)c1nc(C)nc2c1c(C)c(C)n2-c1c(C)cc(C)cc1C`, the TGI in the experiment on IGROV1 ovarian stood at 29.2 µM; in the experiment on SK-MEL-2 melanoma, 25.7 µM; with DU-145 prostate it was 30.2 µM; with T-47D breast it was 25.4 µM; in the experiment with HOP-62 NSCLC, 32.9 µM; with NCI-H226 lung it was 30.1 µM. The TGI came to 27.6 µM with HCT-15 colon, 23.9 µM in the experiment with U251 CNS, 23.4 µM in the experiment on HCT-116 colon and 32.7 µM in the experiment with CCRF-CEM leukemia.
On to `COc1ccc(-c2c(C#N)c(S)n(C3OC(COC(C)=O)C(OC(C)=O)C(OC(C)=O)C3OC(C)=O)c(=O)c2C#N)cc1` (stereo not drawn), for which the GI50 in the experiment with IGROV1 ovarian was > 100 µM and 49.7 µM; with SK-MEL-2 melanoma it was 91.5 µM and 20 µM; in the experiment with U251 CNS, 36.8 µM and 75.2 µM. Moreover, the TGI was above 100 µM in the experiment with IGROV1 ovarian; > 100 µM and 36.1 µM in the experiment with SK-MEL-2 melanoma; above 100 µM with DU-145 prostate; > 100 µM and 52.5 µM in the experiment with T-47D breast; 67.5 µM and > 100 µM with HOP-62 NSCLC; above 100 µM in the experiment with NCI-H226 lung. Moreover, the TGI in the experiment with HCT-15 colon, in the experiment on U251 CNS, in the experiment with HCT-116 colon and with CCRF-CEM leukemia was above 100 µM throughout.
Take `CC(C)=CCN1CC(C)C(=O)Nc2cc(Cl)ccc21` (stereo not drawn): the TGI is 81.9 µM in the experiment on IGROV1 ovarian; 31.1 µM with SK-MEL-2 melanoma; above 100 µM with DU-145 prostate; above 100 µM in the experiment with T-47D breast; 81.4 µM with HOP-62 NSCLC; 40.6 µM in the experiment with NCI-H226 lung. Further, the TGI in the experiment with HCT-15 colon is 80.6 µM; in the experiment with U251 CNS, above 100 µM; in the experiment with HCT-116 colon it was 31.9 µM; in the experiment with CCRF-CEM leukemia, above 100 µM.
In the case of `COc1ccc(-c2c(C#N)c(N)n(C3OC(CO)C(O)C(O)C3O)c(=S)c2C#N)cc1` (stereo not drawn), the TGI in the experiment on IGROV1 ovarian, with SK-MEL-2 melanoma, in the experiment on DU-145 prostate, in the experiment on T-47D breast, in the experiment on HOP-62 NSCLC and with NCI-H226 lung was above 100 µM each time. The TGI in the experiment with HCT-15 colon, in the experiment on U251 CNS, in the experiment on HCT-116 colon and with CCRF-CEM leukemia was above 100 µM throughout.
On to `COc1ncc(C=C(C#N)C#N)c(OC)n1`, for which the TGI with IGROV1 ovarian, with SK-MEL-2 melanoma, with DU-145 prostate, in the experiment on T-47D breast, with HOP-62 NSCLC and with NCI-H226 lung was above 100 µM each time. Besides, the TGI in the experiment with HCT-15 colon is above 100 µM; in the experiment on U251 CNS it was above 100 µM; in the experiment with HCT-116 colon, 74.9 µM; with CCRF-CEM leukemia it was 32.6 µM.
On to `Clc1nc(Cl)nc(NC23CC4CC(CC(C4)C2)C3)n1`, for which the TGI is 28.3 µM in the experiment on IGROV1 ovarian; above 41.8 µM in the experiment with SK-MEL-2 melanoma; 31.3 µM with DU-145 prostate; 42.6 µM in the experiment on T-47D breast; 34.5 µM with HOP-62 NSCLC; 44.2 µM with NCI-H226 lung. The TGI with HCT-15 colon came to 31.7 µM; in the experiment on U251 CNS, 30.5 µM; in the experiment on HCT-116 colon it was 31.3 µM; with CCRF-CEM leukemia it was 23.1 µM.
For `COc1ccc(Nc2[nH]c(C(C)=O)c(N)c2C(=S)Nc2ccccc2)cc1`, the TGI with IGROV1 ovarian, in the experiment on SK-MEL-2 melanoma, in the experiment with DU-145 prostate, with T-47D breast, in the experiment on HOP-62 NSCLC and in the experiment on NCI-H226 lung was above 100 µM each time. In addition, the TGI in the experiment with HCT-15 colon, in the experiment with U251 CNS, in the experiment on HCT-116 colon and with CCRF-CEM leukemia was above 100 µM in each case.
